Assays:
Format in all cases: functional
Cavia porcellus [1] = assay: Platelet-activating factor-antagonist activity was assessed in guinea pig bronchoconstriction assay through peroral administration at a dose of 50 mg/kg at 6 hr; conditions: Lung, route oral
Cavia porcellus [2] = assay: Platelet-activating factor-antagonist activity was assessed in guinea pig bronchoconstriction assay through peroral administration at a dose of 50 mg/kg at 2 hr; conditions: Lung, route oral
Cavia porcellus [3] = assay: 50% inhibitory dose in a guinea pig bronchoconstriction assay of intravenous administration; conditions: Lung, read-out: ID50 (the source's name)
Cavia porcellus [4] = assay: 50% inhibitory dose in a guinea pig bronchoconstriction assay through peroral administration; conditions: Lung, po, read-out: ID50 (the source's name)
Cavia porcellus [5] = assay: 50% inhibitory dose in a guinea pig bronchoconstriction assay upon intravenous administration; conditions: Lung, read-out: ID50 (the source's name)
Cavia porcellus [6] = assay: 50%inhibitory dose in a guinea pig bronchoconstriction assay through peroral administration; conditions: Lung, po, read-out: ID50 (the source's name)

C=CCc1cc(C(=O)N[C@H](C)CCCc2cccnc2)ccc1-c1ccc(OC)c(OC)c1
inhibition in vivo at 50 mg/kg (Cavia porcellus [1]): 26% | inhibition in vivo at 50 mg/kg (Cavia porcellus [2]): 93% | ED50 (Cavia porcellus [3]): 0.33 mg/kg | ED50 (Cavia porcellus [4]): 24 mg/kg

COc1cccc(-c2ccc(C(=O)NCCCCc3cccnc3)cc2)c1
inhibition in vivo at 50 mg/kg (Cavia porcellus [2]): 55% | ED50 (Cavia porcellus [5]): 0.51 mg/kg | ED50 (Cavia porcellus [6]): 50 mg/kg

COc1cccc(-c2ccc(C(=O)N[C@H](C)CCCc3cccnc3)cc2)c1
inhibition in vivo at 50 mg/kg (Cavia porcellus [2]): 44% | ED50 (Cavia porcellus [3]): 0.45 mg/kg

CCCCc1cc(C(=O)N[C@H](C)CCCc2cccnc2)ccc1-c1ccc(OC)c(OC)c1
inhibition in vivo at 50 mg/kg (Cavia porcellus [1]): 55% | inhibition in vivo at 50 mg/kg (Cavia porcellus [2]): 91% | ED50 (Cavia porcellus [3]): 0.8 mg/kg | ED50 (Cavia porcellus [4]): 25 mg/kg

COc1ccc(-c2ccc(C(=O)NCCCCc3cccnc3)cc2OC)cc1OC
inhibition in vivo at 50 mg/kg (Cavia porcellus [1]): 13% | inhibition in vivo at 50 mg/kg (Cavia porcellus [2]): 64% | ED50 (Cavia porcellus [3]): 0.52 mg/kg

COc1ccc(-c2ccc(C(=O)NCCCCc3cccnc3)cc2Br)cc1OC
inhibition in vivo at 50 mg/kg (Cavia porcellus [1]): 1% | inhibition in vivo at 50 mg/kg (Cavia porcellus [2]): 74% | ED50 (Cavia porcellus [3]): 0.4 mg/kg | ED50 (Cavia porcellus [4]): 19 mg/kg

CCc1cc(C(=O)N[C@H](C)CCCc2cccnc2)ccc1-c1ccc(OC)c(OC)c1
inhibition in vivo at 50 mg/kg (Cavia porcellus [1]): 23% | inhibition in vivo at 50 mg/kg (Cavia porcellus [2]): 89% | ED50 (Cavia porcellus [3]): 0.34 mg/kg | ED50 (Cavia porcellus [4]): 24 mg/kg

COc1ccc(-c2ccc(C(=O)N[C@H](C)CCCc3cccnc3)cc2[N+](=O)[O-])cc1OC
inhibition in vivo at 50 mg/kg (Cavia porcellus [1]): 36% | inhibition in vivo at 50 mg/kg (Cavia porcellus [2]): 89% | ED50 (Cavia porcellus [3]): 0.19 mg/kg | ED50 (Cavia porcellus [4]): 22 mg/kg

COc1ccc(-c2ccc(C(=O)NCCCCc3cccnc3)cc2[N+](=O)[O-])cc1OC
inhibition in vivo at 50 mg/kg (Cavia porcellus [1]): 4% | inhibition in vivo at 50 mg/kg (Cavia porcellus [2]): 62% | ED50 (Cavia porcellus [3]): 0.76 mg/kg | ED50 (Cavia porcellus [4]): 39 mg/kg

O=C(NCCCCc1cccnc1)c1ccc(-c2ccccc2)c(-c2ccccc2)c1
inhibition in vivo at 50 mg/kg (Cavia porcellus [2]): 33% | ED50 (Cavia porcellus [3]): 3.2 mg/kg

COc1ccc(-c2ccc(C(=O)N[C@H](C)CCCc3cccnc3)cc2)cc1OC
inhibition in vivo at 50 mg/kg (Cavia porcellus [1]): 29% | inhibition in vivo at 50 mg/kg (Cavia porcellus [2]): 88% | ED50 (Cavia porcellus [3]): 0.62 mg/kg | ED50 (Cavia porcellus [4]): 30 mg/kg

COc1ccc(-c2ccc(C(=O)N[C@H](C)CCCc3cccnc3)cc2Br)cc1OC
inhibition in vivo at 50 mg/kg (Cavia porcellus [1]): 59% | inhibition in vivo at 50 mg/kg (Cavia porcellus [2]): 97% | ED50 (Cavia porcellus [3]): 0.4 mg/kg | ED50 (Cavia porcellus [4]): 14 mg/kg

COc1ccc(-c2ccc(C(S)=N[C@H](C)CCCc3cccnc3)cc2)cc1OC
inhibition in vivo at 50 mg/kg (Cavia porcellus [2]): 37% | ED50 (Cavia porcellus [3]): 0.31 mg/kg

— ChEMBL document CHEMBL1124556, “Biphenylcarboxamide derivatives as antagonists of platelet-activating factor” (J Med Chem, 1989)
